In article PMC11477298, “Small Molecules Inducing Autophagic Degradation of Expanded Polyglutamine Protein through Interaction with Both Mutant ATXN3 and LC3” (International Journal of Molecular Sciences, 2024):

Key:
[1] = tested on: ATXN3-Q75-VC and VN-LC3; experiment: Co-immunoprecipitation of VN-LC3 with ATXN3-Q75-VC in mixed 293T cell lysates; format: binding; details: compound 100 µM; compared to without compound treatment
Source text: EcoRI-NcoI ATXN3 C-terminal Q14 and Q75-containing fragment (amino acids 251–361 in full-length ATXN3-Q14 [NM_004993]; [20]) and NcoI-NotI Venus C-terminal fragment (VC212-239) were subcloned into EcoRI- and NotI-digested pcDNA3 vector (Invitrogen) to generate pcDNA3-ATXN3-Q14−75-VC plasmid for producing ATXN3-Q14−75-VC fusion protein linked by a 6-amino acid polypeptide linker (containing NcoI restriction site). In addition, BamHI-XbaI Venus-N-terminal fragment (VN1-211) and XbaI-BamHI LC3 cDNA fragment (MAP1LC3B, NM_022818) were subcloned into BamHI-digested pcDNA5/FRT/TO vector (Invitrogen) to generate pcDNA5-VN-LC3 plasmid for producing VN-LC3 fusion protein linked by a 2-amino acid dipeptide linker (containing XbaI restriction site). The recombinant pcDNA3-ATXN3-Q14-VC, pcDNA3-ATXN3-Q75-VC, or pcDNA5-VN-LC3 plasmid (2 μg) was transiently transfected into 293T cells (2 × 10^5/6-well) using T-Pro non-liposome transfection reagent II (T-Pro Biotechnology #JT97-N002M, New Taipei City, Taiwan) according to the supplier’s instruction. After 48 h, cell lysate containing ATXN3-Q14-VC, ATXN3-Q75-VC, or VN-LC3 fusion protein was prepared using cytoskeleton (CSK) buffer containing 10 mM PIPES, 100 mM NaCl, 300 mM sucrose, 1 mM EGTA, 1 mM MgCl2, and 1 mM DTT and quantified, as described.
In this case, 293T cell lysates with transiently expressed ATXN3-Q14-VC, ATXN3-Q75-VC, or VN-LC3, and mixture of ATXN3-Q75-VC and VN-LC3 (100 μg of each) in 400 μL CSK buffer were incubated at 4 °C under gentle rotation. To test the concept of the ATTEC, 100 μM of the compound (NC009-1, -2, and -6 or LM-031) was added to the lysates containing ATXN3-Q75-VC and VN-LC3 proteins. After overnight incubation, ATXN3-Q14−75-VC protein was immunoprecipitated with rabbit ataxin-3 (1:1000; Invitrogen #PA5-26251) or mouse 5TF1-1C2 antibody (1:500; Merck #MAB1574, Darmstadt, Germany) at 4 °C overnight. […] The immune complexes were detected using HRP-conjugated goat anti-rabbit (#GTX213110-01) or goat anti-mouse (#GTX213111-01) IgG antibody (1:5000; GeneTex) and chemiluminescent substrate, as described.

[2] = tested on: ATXN3-Q75-GFP SH-SY5Y cells; experiment: Confocal microscopy of LC3 puncta, ATXN3-Q75 aggregates and P62 colocalization; format: cell-based, human; details: compound 10 μM, range over trehalose and the four compounds; for Colocalization coefficient of ATXN3-Q75-GFP with LC3 puncta: untreated 0.014; for Colocalization coefficient of LC3 with P62: untreated 0.21; for LC3 puncta per cell: untreated induced 2.7
Procedure: ATXN3-Q75-GFP SY5Y cells were seeded onto 12-well plates (1 × 10^5/well) containing poly-L-lysine-coated coverslip on day 1; treated with retinoic acid, test compounds, and doxycycline on day 2; and fixed, permeabilized, and blocked on day 8, as described. The primary anti-LC3 antibody (1:1000; Cell Signaling #83506, Danvers, MA, USA) or anti-P62 antibody (1:1500; Cell Signaling #5114) was used to stain cells at 4 °C overnight. After washing with PBS containing 0.1% Tween 20 (PBST), cells were incubated for 2 h at room temperature with Cy5-conjugated (1:1000, Jackson ImmunoResearch 715-175-150) or Alexa Fluor 555-conjugated (1:500; Invitrogen #A-31572) secondary antibody, and washed three times with PBST. Nuclei were detected using DAPI (0.1 μg/mL; Sigma-Aldrich). The stained cells on coverslips were mounted onto microscope slides with Vectashield antifade mounting medium (Vector Laboratories, Newark, CA, USA) and examined using a Zeiss LSM880 confocal microscope (Carl Zeiss AG, Oberkochen, Baden-Württemberg, Germany). Cell images were acquired at excitation/emission wavelengths of 649/666 nm, 482/536 nm, 555/582 nm, and 385/461 nm for stained LC3 puncta, aggregates, P62, and nuclei, respectively. For colocalization, 300 cells from three independent experiments were analyzed and quantified for the proportion of pixels that LC3 (red) colocalized with P62 (yellow) using Mander’s overlap coefficient (MOC) in ZEN software version 2.1 (Carl Zeiss AG).

[3] = MTT compound cytotoxicity assay; format: cell-based, human; details: human, ATXN3-Q75-GFP SH-SY5Y cells, 0.1–100 μM compound, viability analyzed the next day, n = 3
Procedure: For the compound cytotoxicity assay, ATXN3-Q75-GFP SY5Y cells (2 × 10^4) were plated into 96-well dishes, grown for 20 h, and treated with 0.1–100 μM test compounds. After 1 day, 3-(4,5-dimethylthiazol-2-yl)-2,5-diphenyltetrazolium bromide (MTT, 5 mg/mL) (Sigma-Aldrich, St. Louis, MO, USA) was added to the cells and incubated for 3 h at 37 °C. Lysis buffer (10% Triton X-100, 0.1 N HCl, 18% isopropanol) was then added to dissolve the insoluble formazan crystals. The absorbance of the purple-colored solution was measured at optical density (OD) 570 nm by using a FLx800 fluorescence microplate spectrophotometer (Bio-Tek, Winooski, VT, USA). The half-maximal inhibitory concentration (IC50) was calculated through the construction of a dose–response curve.

Structure (SMILES) | Amount of VN-LC3 co-immunoprecipitated by 5TF1-1C2 antibody [1] | Colocalization coefficient of ATXN3-Q75-GFP with LC3 puncta [2] | Colocalization coefficient of LC3 with P62 [2] | LC3 puncta per cell [2] | IC50 at 1 day [3]
O=C(c1ccccc1)c1cc2c(O)cccc2oc1=O [LM-031] | notably increased | 0.025–0.030 | 0.26–0.29 | 4.6–6.7 | > 100 µM
CC(=O)/C(=C\c1ccccc1[N+](=O)[O-])Cc1c[nH]c2ccccc12 [NC009-1] | notably increased | 0.025–0.030 | 0.26–0.29 | 4.6–6.7 | 111 µM
CC(=O)/C(=C\c1ccccc1[N+](=O)[O-])Cc1c(C)[nH]c2ccccc12 [NC009-2] | notably increased | 0.025–0.030 | 0.26–0.29 | 4.6–6.7 | 124 µM
